Laboratory results taken from article PMC5656653, “Evaluation of Ga-DOTA-(D-Asp)n as bone imaging agents: D-aspartic acid peptides as carriers to bone” (Scientific Reports, 2017).
Where a SMILES comes first, the peptide text is derived from it. The star is where a group is joined. DOTA = O=C(O)CN1CCN(CC(=O)O)CCN(CC(=O)*)CCN(CC(=O)O)CC1

How the values were obtained:
[1] = design: method as in PMID 24391942; settings: normal mice; cited from earlier work
[2] = Urine analyses by RP-HPLC after i.v. injection; format: in vivo; settings: mice, urine from bladder at 1 h post-injection
Description: ^67Ga-DOTA-(L-Asp)14 was prepared according to a method described previously. ^67Ga-DOTA-(L-Asp)14 or ^67Ga-DOTA-(D-Asp)14 solution (370 kBq / 200 μL) was intravenously injected to 6-week-old male ddY mice. At 1 h post-injection, mice were sacrificed and their […] were taken from the bladders. After ultrafiltration (Microcon-30, Merck KGaA), the filtrate samples were analyzed by RP-HPLC at a flow rate of 1 mL/min with a gradient mobile phase from water containing 0.1% TFA to 20% methanol in water containing 0.1% TFA for 20 min.

[3] = Biodistribution experiments in normal mice after i.v. injection; format: in vivo; settings: i.v.; for Biodistribution of radioactivity, Blood / Biodistribution of radioactivity, Bone (Femur) / Biodistribution of radioactivity, Brain / Biodistribution of radioactivity, Heart / Biodistribution of radioactivity, Kidney / Biodistribution of radioactivity, Large-intestine / Biodistribution of radioactivity, Liver / Biodistribution of radioactivity, Lung / Biodistribution of radioactivity, Muscle / Biodistribution of radioactivity, Pancreas / Biodistribution of radioactivity, Small-intestine / Biodistribution of radioactivity, Spleen / F/B ratio (Femur:blood ratio) / Biodistribution of radioactivity, Stomach: mice, mean (SD); for Biodistribution of radioactivity, Stomach: footnote b
Description: Experiments with animals were conducted in strict accordance with the Guidelines for the Care and Use of Laboratory Animals of Kanazawa University. The animal experimental protocols used were approved by the Committee on Animal Experimentation of Kanazawa University (Permit Number: AP-132633). Biodistribution experiments were performed after intravenous administration of each diluted tracer solution (37–740 kBq/100 μL) to 6-week-old male ddY mice (27–32 g, Japan SLC, Inc., Hamamatsu, Japan). Four or five mice at each time point after the administration of each compound were sacrificed by decapitation at 10, 60, and 180 min post-injection. Tissues of interest were taken and weighed. Complete left femurs were isolated as representative bone samples, radioactivity was determined using gamma counters (AccuFLEX γ ARC-8001 in the case of ^18F, Hitachi, Ltd.), and background counts and physical decay were corrected during counting.

For `O=C(O)C[C@H](NC(=O)[C@H](CC(=O)O)NC(=O)[C@H](CC(=O)O)NC(=O)[C@H](CC(=O)O)NC(=O)[C@H](CC(=O)O)NC(=O)[C@H](CC(=O)O)NC(=O)[C@H](CC(=O)O)NC(=O)[C@H](CC(=O)O)NC(=O)[C@H](CC(=O)O)NC(=O)[C@H](CC(=O)O)NC(=O)[C@H](CC(=O)O)NC(=O)[C@H](CC(=O)O)NC(=O)[C@H](CC(=O)O)NC(=O)[C@H](CC(=O)O)NC(=O)CN1CCN(CC(=O)O)CCN(CC(=O)O)CCN(CC(=O)O)CC1)C(=O)O` [^67Ga-DOTA-(L-Asp)14, metal not drawn] ({DOTA}-DDDDDDDDDDDDDD-OH), the “Accumulation in bone (in words)” value [1] is given as “high accumulation in bone”, the “Blood clearance (in words)” value [1] is given as “rapid blood clearance” and the “Ratio of the intact complex in urine” value [2] is given as 55.0 ± 13.9%.

In the case of `O.O.O=P([O-])([O-])CP(=O)([O-])[O-].[99Tc+4]` [^99mTc-MDP, ^99mTc-methylenediphosphonate, reference compound], the “Biodistribution of radioactivity, Blood” value ([3]; 10 min after injection) is reported as 2.43 (0.10) % injected dose, the “Biodistribution of radioactivity, Bone (Femur)” value (from here on “Biodistribution … (Femur)”) ([3]; 10 min after injection) is reported as 20.76 (1.51) % injected dose and the “Biodistribution of radioactivity, Brain” value ([3]; 10 min after injection) is reported as 0.06 (0.01) % injected dose. For the same molecule, the “Biodistribution of radioactivity, Heart” value ([3]; 10 min after injection) was 0.94 (0.05) % injected dose, the “Biodistribution of radioactivity, Kidney” value ([3]; 10 min after injection) was 10.44 (1.56) % injected dose and the “Biodistribution of radioactivity, Large-intestine” value (“Biodistribution … Large-intestine” below) ([3]; 10 min after injection) was 0.61 (0.20) % injected dose. For the same molecule, the “Biodistribution of radioactivity, Liver” value ([3]; 10 min after injection) was 0.61 (0.02) % injected dose, the “Biodistribution of radioactivity, Lung” value ([3]; 10 min after injection) was 1.80 (0.16) % injected dose and the “Biodistribution of radioactivity, Muscle” value ([3]; 10 min after injection) was 0.57 (0.09) % injected dose. For the same molecule, the “Biodistribution of radioactivity, Pancreas” value (“Biodistribution … Pancreas” for short) ([3]; 10 min after injection) was 0.77 (0.10) % injected dose, the “Biodistribution of radioactivity, Small-intestine” value (shortened to “Biodistribution … Small-intestine”) ([3]; 10 min after injection) was 0.69 (0.15) % injected dose and the “Biodistribution of radioactivity, Spleen” value ([3]; 10 min after injection) was 0.54 (0.07) % injected dose. The “F/B ratio (Femur:blood ratio)” value ([3]; 10 min after injection) was 8.54 (0.57), the “Biodistribution of radioactivity, Stomach” value (shortened to “Biodistribution … Stomach”) ([3]; 10 min after injection) was 0.63 (0.14) % injected dose and the “Biodistribution of radioactivity, Blood” value ([3]; 60 min after injection) was 0.23 (0.04) % injected dose. For the same molecule, the “Biodistribution … (Femur)” value ([3]; 60 min after injection) was 27.92 (3.25) % injected dose, the “Biodistribution of radioactivity, Brain” value ([3]; 60 min after injection) was 0.02 (0.00) % injected dose and the “Biodistribution of radioactivity, Heart” value ([3]; 60 min after injection) was 0.16 (0.02) % injected dose. For the same molecule, the “Biodistribution of radioactivity, Kidney” value ([3]; 60 min after injection) was 2.03 (0.50) % injected dose, the “Biodistribution … Large-intestine” value ([3]; 60 min after injection) was 0.14 (0.04) % injected dose and the “Biodistribution of radioactivity, Liver” value ([3]; 60 min after injection) was 0.27 (0.05) % injected dose. The “Biodistribution of radioactivity, Lung” value ([3]; 60 min after injection) was 0.30 (0.03) % injected dose, the “Biodistribution of radioactivity, Muscle” value ([3]; 60 min after injection) was 0.13 (0.04) % injected dose and the “Biodistribution … Pancreas” value ([3]; 60 min after injection) was 0.13 (0.02) % injected dose. The “Biodistribution … Small-intestine” value ([3]; 60 min after injection) was 1.55 (1.68) % injected dose, the “Biodistribution of radioactivity, Spleen” value ([3]; 60 min after injection) was 0.14 (0.02) % injected dose and the “F/B ratio (Femur:blood ratio)” value ([3]; 60 min after injection) was 120.87 (9.30). For the same molecule, the “Biodistribution … Stomach” value ([3]; 60 min after injection) was 0.70 (0.37) % injected dose, the “Biodistribution of radioactivity, Blood” value ([3]; 180 min after injection) was 0.05 (0.01) % injected dose and the “Biodistribution … (Femur)” value ([3]; 180 min after injection) was 29.03 (2.12) % injected dose. The “Biodistribution of radioactivity, Brain” value ([3]; 180 min after injection) was 0.01 (0.00) % injected dose, the “Biodistribution of radioactivity, Heart” value ([3]; 180 min after injection) was 0.07 (0.02) % injected dose and the “Biodistribution of radioactivity, Kidney” value ([3]; 180 min after injection) was 1.22 (0.36) % injected dose. For the same molecule, the “Biodistribution … Large-intestine” value ([3]; 180 min after injection) was 0.23 (0.07) % injected dose, the “Biodistribution of radioactivity, Liver” value ([3]; 180 min after injection) was 0.16 (0.04) % injected dose and the “Biodistribution of radioactivity, Lung” value ([3]; 180 min after injection) was 0.10 (0.02) % injected dose. The “Biodistribution of radioactivity, Muscle” value ([3]; 180 min after injection) was 0.06 (0.01) % injected dose, the “Biodistribution … Pancreas” value ([3]; 180 min after injection) was 0.07 (0.01) % injected dose and the “Biodistribution … Small-intestine” value ([3]; 180 min after injection) was 0.26 (0.08) % injected dose. The “Biodistribution of radioactivity, Spleen” value ([3]; 180 min after injection) was 0.07 (0.01) % injected dose, the “F/B ratio (Femur:blood ratio)” value ([3]; 180 min after injection) was 546.64 (91.83) and the “Biodistribution … Stomach” value ([3]; 180 min after injection) was 0.29 (0.07) % injected dose. For the same molecule, the “Accumulation of radioactivity in bone (in words)” value ([3]; normal mice) was “high accumulation and retention of radioactivity in bone”.
